Publication PMC2774621, “Homogenous Fluorescent Assays for Characterizing Small-Molecule Activators of AMP-Activated Protein Kinase (AMPK)” (Current Chemical Genomics, 2008)

Key:
AMPK α1β1γ1 [1] = target: T1, AMPK α1β1γ1 (Homo sapiens, UniProt P54619+Q13131); assay: CHEF-based activity assay (Omnia S/T23 peptide); assay type: biochemical; conditions: ATP 40 µM, substrate 8 µM, 30°C
T1 construct: made in house; host or cells: Sf9 insect cells (baculovirus)
Experimental: Kinase reactions were performed in a 50 µL reaction volume at 30°C in 96-well half-area plate (Corning Model 3992) using the same assay buffer as the radiometric assays. Inhibitors and activators were prepared as described for the radiometric assays. Assays were performed by mixing 10 µL enzyme solution, 10 µL of substrate peptide solution, 10 µL of AMP solution (or H2O for the activator experiments), and 10 µL of inhibitor or activator solution. The reactions were initiated by adding 10 µL of ATP solution. The final concentration of Omnia™ S/T23 peptide substrate in the reaction was 8 µM. AMPK α1β1γ1 was used at 320 ng/mL (1.7 nM), at an ATP concentration of 40 µM. AMPK α2β1γ1 was used at 640 ng/mL (3.4 nM), at an ATP concentration of 120 µM. The concentration of AMP in the inhibitor titrations was 80 µM. Immediately after addition of ATP the assay plate was placed into a fluorescence plate reader (Molecular Devices SpectraMax M5, pre-warmed to 30°C). The plates were read for 60 minutes using an excitation wavelength of 360 nm and emission wavelength of 485 nm. The reaction rates were calculated as the change in fluorescence intensity over time (Rfu/sec) over the period where the assay response was linear.
(§1) Data analysis and curve-fitting was performed using GraphPad Prism software (GraphPad Software, Inc, San Diego CA).

AMPK α1β1γ1 [2] = target: T1, AMPK α1β1γ1; assay: FRET-based kinase activity assay (Z'-LYTE S/T23 peptide); assay type: biochemical; conditions: ATP 50 µM, substrate 2 µM
Experimental: Kinase reactions were performed in a 10 µL assay volume at room temperature in 384-well low volume plates (Corning model 3676) using the same assay buffer as the radiometric assay. Inhibitors and activators were prepared as described for the radiometric assays. Assays were performed as follows: 2.5 µL of the inhibitor or activator working stock was added to a 5 µL solution of kinase and substrate, followed by 2.5 µL of ATP to start the assay. All assays were performed in quadruplicate. The final concentration of Z’-LYTE™ S/T23 peptide substrate in the reaction was 2 µM. AMPK α1β1γ1 was used at 79 ng/mL (0.42 nM) in the inhibition experiments and 41 ng/mL (0.22 nM) in the activation experiments, at an ATP concentration of 50 µM. AMPK α2β1γ1 was used at 177 ng/mL (0.92 nM) in the inhibition experiments and 41 ng/mL (0.22 nM) in the activation experiments, at an ATP concentration of 150 µM. After one hour, 5 µL of protease solution was added to a final well volume of 15 µL. After a 1 hour incubation at room temperature the assay plate was read on a Tecan Safire plate reader using an excitation wavelength of 400 nm (12 nm bandpass), and emission wavelengths of 445 nm (12 nm bandpass) and 520 nm (12 nm bandpass). The FRET ratio was calculated as the intensity of the donor signal divided by the intensity of the acceptor signal. The extent of substrate phosphorylation was calculated from the FRET ratio as described previously.
as §1

T1 sequence (Q13131 whole entry): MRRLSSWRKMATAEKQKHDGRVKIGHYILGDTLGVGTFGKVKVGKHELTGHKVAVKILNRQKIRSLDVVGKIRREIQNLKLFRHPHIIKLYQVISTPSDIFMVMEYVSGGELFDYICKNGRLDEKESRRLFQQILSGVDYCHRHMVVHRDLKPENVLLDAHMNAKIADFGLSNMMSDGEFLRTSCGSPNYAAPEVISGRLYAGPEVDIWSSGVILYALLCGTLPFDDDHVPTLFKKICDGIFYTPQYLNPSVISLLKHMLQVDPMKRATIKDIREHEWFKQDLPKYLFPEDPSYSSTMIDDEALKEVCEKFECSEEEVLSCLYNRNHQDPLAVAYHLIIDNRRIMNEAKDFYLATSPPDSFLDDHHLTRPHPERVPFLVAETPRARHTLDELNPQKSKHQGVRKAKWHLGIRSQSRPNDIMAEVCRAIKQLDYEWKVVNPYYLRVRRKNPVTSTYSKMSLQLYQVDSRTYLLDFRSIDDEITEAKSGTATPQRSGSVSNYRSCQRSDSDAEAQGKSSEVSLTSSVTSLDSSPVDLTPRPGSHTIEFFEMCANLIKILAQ
T1 sequence (Q9Y478 whole entry partner): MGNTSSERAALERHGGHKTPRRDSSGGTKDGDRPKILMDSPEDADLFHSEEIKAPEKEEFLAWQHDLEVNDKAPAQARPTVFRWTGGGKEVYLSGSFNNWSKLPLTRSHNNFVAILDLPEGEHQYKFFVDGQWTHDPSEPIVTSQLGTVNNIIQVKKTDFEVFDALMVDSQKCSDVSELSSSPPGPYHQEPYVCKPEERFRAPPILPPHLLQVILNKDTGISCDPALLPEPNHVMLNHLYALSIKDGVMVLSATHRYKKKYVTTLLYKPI
T1 sequence (P54619 whole entry): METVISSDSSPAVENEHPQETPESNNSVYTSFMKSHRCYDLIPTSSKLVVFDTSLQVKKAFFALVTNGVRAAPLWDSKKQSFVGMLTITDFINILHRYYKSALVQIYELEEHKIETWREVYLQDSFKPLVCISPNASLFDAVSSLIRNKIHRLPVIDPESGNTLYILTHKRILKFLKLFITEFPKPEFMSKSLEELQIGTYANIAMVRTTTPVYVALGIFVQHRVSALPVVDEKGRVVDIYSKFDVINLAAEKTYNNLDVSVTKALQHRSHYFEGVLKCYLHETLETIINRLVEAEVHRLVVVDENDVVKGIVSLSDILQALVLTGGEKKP

Nc1ncnc2c1ncn2[C@@H]1O[C@H](COP(O)(O)=S)[C@@H](O)[C@H]1O [ATMP, adenosine 5′-O-thiomonophosphate]
Max. fold-activation (AMPK α1β1γ1 [1]): 1.8 fold
EC50 (AMPK α1β1γ1 [1]; read-out: Activator EC50): 250 nM
Max. fold-activation (AMPK α1β1γ1 [2]): 3.3 fold
EC50 (AMPK α1β1γ1 [2]; read-out: Activator EC50): 350 nM
